Experimental data taken from US9738634B2, “Heterocyclic amide compound and herbicide” (SYNGENTA PARTICIPATIONS AG, priority 2013, dated 2017).

What was measured:
Assay type in all cases: in vivo
Conditions in all cases: treatment dosage 320 g/ha
barnyard grass [1] = assay: Test Example 1: weedkilling efficacy, preemergent weed treatment in the submerged state; A: barnyard grass
In short: (§1)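 Pre-emergence paddy test: weed seeds sown in submerged alluvial soil (4 cm water), 2.5-leaf rice transplanted, water-diluted emulsion applied to water surface at sowing at stated g/ha. Scored at 3 weeks, greenhouse 25–30 °C.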

bulrush [2] = assay: Test Example 1: weedkilling efficacy, preemergent weed treatment in the submerged state; B: bulrush
In short: as §1

oval-leafed pondweed [3] = assay: Test Example 1: weedkilling efficacy, preemergent weed treatment in the submerged state; C: oval-leafed pondweed
In short: as §1

transplanted rice = assay: Test Example 1: preemergent weed treatment in the submerged state, effect on crop; a: transplanted rice
In short: as §1

barnyard grass [4] = assay: Test Example 2: weedkilling efficacy, growth period weed treatment in the submerged state; A: barnyard grass
In short: (§2)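 Seedlings at 1-2 leaves in 4 cm-deep submerged alluvial soil received emulsion formulations on the water surface, dosed per hectare; effects were judged 3 weeks on.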

bulrush [5] = assay: Test Example 2: weedkilling efficacy, growth period weed treatment in the submerged state; B: bulrush
In short: as §2

oval-leafed pondweed [6] = assay: Test Example 2: weedkilling efficacy, growth period weed treatment in the submerged state; C: oval-leafed pondweed
In short: as §2

crabgrass [7] = assay: Test Example 3: weedkilling efficacy through soil treatment; D: crabgrass
In short: (§3)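 Crop and weed responses were judged three weeks after a uniform surface spray of the water-diluted emulsion at the given g/ha rate. Seeds sat beneath about 1.5 cm of sterilized diluvial soil, and boxes stood in a greenhouse at 25 to 30° C.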

green foxtail [8] = assay: Test Example 3: weedkilling efficacy through soil treatment; E: green foxtail
In short: as §3

barnyard grass [9] = assay: Test Example 3: weedkilling efficacy through soil treatment; F: barnyard grass
In short: as §3

wild oat [10] = assay: Test Example 3: weedkilling efficacy through soil treatment; G: wild oat
In short: as §3

black-grass [11] = assay: Test Example 3: weedkilling efficacy through soil treatment; H: black-grass
In short: as §3

Italian ryegrass [12] = assay: Test Example 3: weedkilling efficacy through soil treatment; I: Italian ryegrass
In short: as §3

common wind-grass [13] = assay: Test Example 3: weedkilling efficacy through soil treatment; J: common wind-grass
In short: as §3

Indian mallow [14] = assay: Test Example 3: weedkilling efficacy through soil treatment; K: Indian mallow
In short: as §3

redroot pigweed [15] = assay: Test Example 3: weedkilling efficacy through soil treatment; L: redroot pigweed
In short: as §3

fig-leafed goosefoot [16] = assay: Test Example 3: weedkilling efficacy through soil treatment; M: fig-leafed goosefoot
In short: as §3

chickweed [17] = assay: Test Example 3: weedkilling efficacy through soil treatment; N: chickweed
In short: as §3

catchweed [18] = assay: Test Example 3: weedkilling efficacy through soil treatment; O: catchweed
In short: as §3

birds-eye speedwell = assay: Test Example 3: weedkilling efficacy through soil treatment; p: birds-eye speedwell
In short: as §3

directly sown rice [19] = assay: Test Example 3: soil treatment, effect on crop; b: directly sown rice
In short: as §3

corn [20] = assay: Test Example 3: soil treatment, effect on crop; c: corn
In short: as §3

soybean [21] = assay: Test Example 3: soil treatment, effect on crop; d: soybean
In short: as §3

wheat [22] = assay: Test Example 3: soil treatment, effect on crop; e: wheat
In short: as §3

beet [23] = assay: Test Example 3: soil treatment, effect on crop; f: beet
In short: as §3

rapeseed [24] = assay: Test Example 3: soil treatment, effect on crop; g: rapeseed
In short: as §3

crabgrass [25] = assay: Test Example 4: weedkilling efficacy by foliar treatment; D: crabgrass
In short: (§4)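 Seeds are spot-sown into sterilized diluvial soil and covered with about 1.5 cm of soil. After 14 days' greenhouse growth at 25 to 30° C, plants are sprayed on stems and leaves with diluted emulsion at the stated g/ha rate, then scored at 3 weeks.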

green foxtail [26] = assay: Test Example 4: weedkilling efficacy by foliar treatment; E: green foxtail
In short: as §4

barnyard grass [27] = assay: Test Example 4: weedkilling efficacy by foliar treatment; F: barnyard grass
In short: as §4

wild oat [28] = assay: Test Example 4: weedkilling efficacy by foliar treatment; G: wild oat
In short: as §4

black-grass [29] = assay: Test Example 4: weedkilling efficacy by foliar treatment; H: black-grass
In short: as §4

Italian ryegrass [30] = assay: Test Example 4: weedkilling efficacy by foliar treatment; I: Italian ryegrass
In short: as §4

common wind-grass [31] = assay: Test Example 4: weedkilling efficacy by foliar treatment; J: common wind-grass
In short: as §4

Indian mallow [32] = assay: Test Example 4: weedkilling efficacy by foliar treatment; K: Indian mallow
In short: as §4

redroot pigweed [33] = assay: Test Example 4: weedkilling efficacy by foliar treatment; L: redroot pigweed
In short: as §4

fig-leafed goosefoot [34] = assay: Test Example 4: weedkilling efficacy by foliar treatment; M: fig-leafed goosefoot
In short: as §4

chickweed [35] = assay: Test Example 4: weedkilling efficacy by foliar treatment; N: chickweed
In short: as §4

catchweed [36] = assay: Test Example 4: weedkilling efficacy by foliar treatment; O: catchweed
In short: as §4

directly sown rice [37] = assay: Test Example 4: foliar treatment, effect on crop; b: directly sown rice
In short: as §4

corn [38] = assay: Test Example 4: foliar treatment, effect on crop; c: corn
In short: as §4

soybean [39] = assay: Test Example 4: foliar treatment, effect on crop; d: soybean
In short: as §4

wheat [40] = assay: Test Example 4: foliar treatment, effect on crop; e: wheat
In short: as §4

beet [41] = assay: Test Example 4: foliar treatment, effect on crop; f: beet
In short: as §4

rapeseed [42] = assay: Test Example 4: foliar treatment, effect on crop; g: rapeseed
In short: as §4

**Q.** How did the “A (barnyard grass) weedkilling efficacy grade” value (barnyard grass [1]) turn out when `CC1=C(c2ccccc2)C(=O)N(C(C)(C)C(=O)Nc2ncccc2F)CO1` [B-2-24] was run?
**A.** 2 (weed kill ratio 20% or more, less than 40%)

**Q.** What about the “B (bulrush) weedkilling efficacy grade” value (bulrush [2]) of the same molecule?
**A.** 5 (weed kill ratio 90% or more, (practically complete withering))

**Q.** What about the “C (oval-leafed pondweed) weedkilling efficacy grade” value (oval-leafed pondweed [3]) of the same molecule?
**A.** 3 (weed kill ratio 40% or more, less than 70%)

**Q.** What about the “a (transplanted rice) effect on crop grade” value (transplanted rice) of the same molecule?
**A.** 0 (weed kill ratio 5% or less (practically no effect))

**Q.** And the “A (barnyard grass) weedkilling efficacy grade” value (barnyard grass [4])?
**A.** 1 (weed kill ratio 5% or more, less than 20%)

**Q.** What about the “B (bulrush) weedkilling efficacy grade” value (bulrush [5]) of the same molecule?
**A.** 4 (weed kill ratio 70% or more, less than 90%)

**Q.** And the “C (oval-leafed pondweed) weedkilling efficacy grade” value (oval-leafed pondweed [6])?
**A.** 3 (weed kill ratio 40% or more, less than 70%)

**Q.** And the “D (crabgrass) weedkilling efficacy grade” value (crabgrass [7])?
**A.** 3 (weed kill ratio 40% or more, less than 70%)

**Q.** And the “E (green foxtail) weedkilling efficacy grade” value (green foxtail [8])?
**A.** 3 (weed kill ratio 40% or more, less than 70%)

**Q.** And the “F (barnyard grass) weedkilling efficacy grade” value (barnyard grass [9])?
**A.** 3 (weed kill ratio 40% or more, less than 70%)

**Q.** What about the “G (wild oat) weedkilling efficacy grade” value (wild oat [10]) of the same molecule?
**A.** 0 (weed kill ratio 5% or less (practically no effect))

**Q.** And the “H (black-grass) weedkilling efficacy grade” value (black-grass [11])?
**A.** 0 (weed kill ratio 5% or less (practically no effect))

**Q.** And the “I (Italian ryegrass) weedkilling efficacy grade” value (Italian ryegrass [12])?
**A.** 0 (weed kill ratio 5% or less (practically no effect))

**Q.** And the “J (common wind-grass) weedkilling efficacy grade” value (common wind-grass [13])?
**A.** 3 (weed kill ratio 40% or more, less than 70%)

**Q.** And the “K (Indian mallow) weedkilling efficacy grade” value (Indian mallow [14])?
**A.** 0 (weed kill ratio 5% or less (practically no effect))

**Q.** What about the “L (redroot pigweed) weedkilling efficacy grade” value (redroot pigweed [15]) of the same molecule?
**A.** 0 (weed kill ratio 5% or less (practically no effect))

**Q.** What about the “M (fig-leafed goosefoot) weedkilling efficacy grade” value (fig-leafed goosefoot [16]) of the same molecule?
**A.** 0 (weed kill ratio 5% or less (practically no effect))

**Q.** What about the “N (chickweed) weedkilling efficacy grade” value (chickweed [17]) of the same molecule?
**A.** 3 (weed kill ratio 40% or more, less than 70%)

**Q.** And the “O (catchweed) weedkilling efficacy grade” value (catchweed [18])?
**A.** 0 (weed kill ratio 5% or less (practically no effect))

**Q.** And the “P (birds-eye speedwell) weedkilling efficacy grade” value (birds-eye speedwell)?
**A.** 0 (weed kill ratio 5% or less (practically no effect))

**Q.** What about the “b (directly sown rice) effect on crop grade” value (directly sown rice [19]) of the same molecule?
**A.** 0 (weed kill ratio 5% or less (practically no effect))

**Q.** And the “c (corn) effect on crop grade” value (corn [20])?
**A.** 0 (weed kill ratio 5% or less (practically no effect))

**Q.** And the “d (soybean) effect on crop grade” value (soybean [21])?
**A.** 0 (weed kill ratio 5% or less (practically no effect))

**Q.** What about the “e (wheat) effect on crop grade” value (wheat [22]) of the same molecule?
**A.** 0 (weed kill ratio 5% or less (practically no effect))

**Q.** And the “f (beet) effect on crop grade” value (beet [23])?
**A.** 0 (weed kill ratio 5% or less (practically no effect))

**Q.** And the “g (rapeseed) effect on crop grade” value (rapeseed [24])?
**A.** 0 (weed kill ratio 5% or less (practically no effect))

**Q.** What about the “D (crabgrass) weedkilling efficacy grade” value (crabgrass [25]) of the same molecule?
**A.** 0 (weed kill ratio 5% or less (practically no effect))

**Q.** And the “E (green foxtail) weedkilling efficacy grade” value (green foxtail [26])?
**A.** 1 (weed kill ratio 5% or more, less than 20%)

**Q.** What about the “F (barnyard grass) weedkilling efficacy grade” value (barnyard grass [27]) of the same molecule?
**A.** 0 (weed kill ratio 5% or less (practically no effect))

**Q.** What about the “G (wild oat) weedkilling efficacy grade” value (wild oat [28]) of the same molecule?
**A.** 0 (weed kill ratio 5% or less (practically no effect))

**Q.** And the “H (black-grass) weedkilling efficacy grade” value (black-grass [29])?
**A.** 0 (weed kill ratio 5% or less (practically no effect))

**Q.** What about the “I (Italian ryegrass) weedkilling efficacy grade” value (Italian ryegrass [30]) of the same molecule?
**A.** 0 (weed kill ratio 5% or less (practically no effect))

**Q.** And the “J (common wind-grass) weedkilling efficacy grade” value (common wind-grass [31])?
**A.** 1 (weed kill ratio 5% or more, less than 20%)

**Q.** What about the “K (Indian mallow) weedkilling efficacy grade” value (Indian mallow [32]) of the same molecule?
**A.** 0 (weed kill ratio 5% or less (practically no effect))

**Q.** And the “L (redroot pigweed) weedkilling efficacy grade” value (redroot pigweed [33])?
**A.** 0 (weed kill ratio 5% or less (practically no effect))

**Q.** And the “M (fig-leafed goosefoot) weedkilling efficacy grade” value (fig-leafed goosefoot [34])?
**A.** 4 (weed kill ratio 70% or more, less than 90%)

**Q.** What about the “N (chickweed) weedkilling efficacy grade” value (chickweed [35]) of the same molecule?
**A.** 2 (weed kill ratio 20% or more, less than 40%)

**Q.** What about the “O (catchweed) weedkilling efficacy grade” value (catchweed [36]) of the same molecule?
**A.** 3 (weed kill ratio 40% or more, less than 70%)

**Q.** What about the “b (directly sown rice) effect on crop grade” value (directly sown rice [37]) of the same molecule?
**A.** 0 (weed kill ratio 5% or less (practically no effect))

**Q.** And the “c (corn) effect on crop grade” value (corn [38])?
**A.** 0 (weed kill ratio 5% or less (practically no effect))

**Q.** And the “d (soybean) effect on crop grade” value (soybean [39])?
**A.** 0 (weed kill ratio 5% or less (practically no effect))

**Q.** What about the “e (wheat) effect on crop grade” value (wheat [40]) of the same molecule?
**A.** 0 (weed kill ratio 5% or less (practically no effect))

**Q.** And the “f (beet) effect on crop grade” value (beet [41])?
**A.** 0 (weed kill ratio 5% or less (practically no effect))

**Q.** What about the “g (rapeseed) effect on crop grade” value (rapeseed [42]) of the same molecule?
**A.** 0 (weed kill ratio 5% or less (practically no effect))
